For series [1], the system named is leukotriene D4 (LTD4)-induced contraction of guinea pig ileum. Kind of series: Antileukotriene action (in vitro test), isotonic contraction of isolated ileum induced with LTD4. As to conditions: Cavia porcellus; test compound 10^-5 M, contraction with 10^-8 M LTD4; read-out: LTD4 action (inhibition exerted by a test compound at 10^-5 M). On the procedure: (§1) Antihistaminic action and antileukotriene action (in vitro test):
(§2) A guinea pig was subjected to ileectomy, and the ileum was cut to have a length of about 2 cm. Each piece of ileum was suspended in a Tyrode's buffer placed in a 20-ml organ bath. Isotonic contraction in response to histamine or leukotriene D4 was recorded by use of a recording apparatus. The Tyrode's buffer was aerated with a gas mixture (95% O2 -5% CO2) while the temperature of the buffer was maintained at 30° C. Antihstaminic activity was tested by adding 10^-8 to 10^-4 M histamine to the organ bath and obtaining a dose-response curve. After washing with a buffer several times, a test compound was added to the organ bath. Thirty minutes later, another dose-response curve of histamine was obtained. For the test of antileukotriene activity, effects exerted by addition of a 10^-5 M test compound on the contraction included with 10^-8 M LTD4 was investigated.

For series [2], the target named is T1, LTD4 Receptor (Cavia porcellus, UniProt Q2NNR5).
T1 construct: guinea pig lung protein; from tissue; host or cells: guinea pig lung
T1 sequence (Q2NNR5 1-340): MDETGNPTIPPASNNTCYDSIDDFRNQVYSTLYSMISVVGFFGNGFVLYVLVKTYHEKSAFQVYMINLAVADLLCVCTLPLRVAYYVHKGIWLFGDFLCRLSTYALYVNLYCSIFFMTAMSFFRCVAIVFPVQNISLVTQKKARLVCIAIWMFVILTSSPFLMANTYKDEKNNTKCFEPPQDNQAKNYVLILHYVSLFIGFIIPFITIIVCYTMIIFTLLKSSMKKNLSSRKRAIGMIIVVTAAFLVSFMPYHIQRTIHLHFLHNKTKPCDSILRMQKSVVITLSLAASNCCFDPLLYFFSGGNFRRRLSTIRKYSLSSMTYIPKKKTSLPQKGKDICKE
Nature of the series: LTD4 Receptor binding inhibitory test ([^3 H] leukotriene D4). On the set-up: species or system guinea pig. On the procedure: LTD4 Receptor binding inhibitory test:
Reaction was stopped by addition of ice-cold Tris-HCl/NaCl (10 mM/100 mM, pH 7.5) buffer, and immediately thereafter, the reaction mixture was filtered by use of a Wattman CF/C filter. The filter was washed twice, each time with 20 ml ice-cold buffer. Radioactivity of the residue was measured by use of a liquid scintillation counter. […] In a saturation test, 2 μM leukotriene D4 was used for the measurement of the amount of non-specific binding.

The target of series [3] is histamine-induced contraction of guinea pig ileum (Cavia porcellus, UniProt P31389). Nature of the series: Antihistaminic action (in vitro test), isotonic contraction of isolated ileum in response to histamine. The settings on record: histamine 10^-8 to 10^-4 M, 30 min after addition of test compound; for Kb: read-out: Anti-histaminic action pA2 (converted). On the procedure:
as §1, §2

Series [4] deals with H1 receptor (Cavia porcellus, UniProt P31389). Kind of series: biochemical. The class given is binding, guinea pig. On the procedure: H1 receptor binding inhibitory test:
Reaction was stopped by addition of ice-cold phosphate buffer, and immediately thereafter, the reaction mixture was filtered by use of a Wattman CF/C filter. The filter was washed twice, each time with 20 ml ice-cold buffer. Radioactivity of the residue was measured by use of a liquid scintillation counter. From the value as obtained when a test compound was not added and values as obtained when the test compound was added at different concentrations, there was determined a dose-response curve representing suppression action of the test compound, from which a 50% inhibitory concentration (IC50) was obtained. Based on the IC50 value and by use of the Cheng-Prusoff equation, a dissociation constant (KD) was calculated (Table 4). In a saturation test, 10^-4 M R(-)-dimethindene was used for the measurement of the amount of non-specific binding.

The subject of series [5] is leukotriene D4 (LTD4)-induced contraction of guinea pig ileum. Nature of the series: Antileukotriene action (in vitro test), isotonic contraction of isolated ileum induced with LTD4. The settings on record: Cavia porcellus; contraction with 10^-8 M LTD4.
The target in series [6] is T2, H1 receptor (Mus musculus, UniProt P70174).
T2 construct: from tissue; host or cells: mouse brain homogenate after intraperitoneal dosing
Nature of the series: Test on migration into the brain (ex vivo [^3 H]mepyramine binding in mouse brain after intraperitoneal administration). Details: species or system mice. As to conditions: ip. On the procedure: Test on migration into the brain:
The test was performed in accordance with a method described by Zang. […] Briefly, several mice each weighing 20-23 g were provided, and to each mouse was intraperitoneally administered a test sample having a predetermined concentration. One hour later, each mouse was sacrificed and its brain was removed. The brain tissue was mixed with 30 mM Na, K phosphate buffer (pH 7.5) so as to attain a concentration of 40 ml/g wet weight, and the mixture was homogenized. […] The mixture was incubated at 37° C. for 50 minutes. Subsequently, reaction was stopped by addition of ice-cold phosphate buffer, and immediately thereafter, the reaction mixture was filtered by use of a Wattman CF/C filter. The filter was washed twice, each time with 20 ml ice-cold buffer. Radioactivity of the residue was measured by use of a liquid scintillation counter. […] The cerebral migration index, BPindex, was calculated from the following equation.
BPindex=IC50 (mg/kg)/dissociation constant for H1 recepters (nM)

SMILES strings stand for the structures. Structures can show the parent of a compound that is named as a salt.

By inhibition is commonly meant the drop in the measured response relative to a control, in per cent. The term Kd denotes the equilibrium constant for the complex coming apart. What is called IC50 is the concentration that inhibits the measured activity by half.

Sequence of histamine-induced contraction of guinea pig ileum (P31389 whole entry): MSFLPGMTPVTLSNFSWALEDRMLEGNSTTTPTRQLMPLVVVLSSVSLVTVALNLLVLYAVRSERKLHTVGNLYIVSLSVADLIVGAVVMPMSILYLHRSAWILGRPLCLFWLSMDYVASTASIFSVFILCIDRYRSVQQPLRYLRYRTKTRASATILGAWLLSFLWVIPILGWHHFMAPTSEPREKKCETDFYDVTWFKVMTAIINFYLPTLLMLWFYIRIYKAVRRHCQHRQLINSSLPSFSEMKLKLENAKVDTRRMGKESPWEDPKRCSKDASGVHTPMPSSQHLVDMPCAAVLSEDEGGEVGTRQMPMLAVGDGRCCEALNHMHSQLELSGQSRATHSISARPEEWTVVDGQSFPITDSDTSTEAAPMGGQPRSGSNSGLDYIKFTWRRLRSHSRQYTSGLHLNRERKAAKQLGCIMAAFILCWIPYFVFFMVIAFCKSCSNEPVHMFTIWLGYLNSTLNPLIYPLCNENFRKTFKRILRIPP
Sequence of H1 receptor (Cavia porcellus, UniProt P31389) (P31389 whole entry): as above
T2 sequence (P70174 whole entry): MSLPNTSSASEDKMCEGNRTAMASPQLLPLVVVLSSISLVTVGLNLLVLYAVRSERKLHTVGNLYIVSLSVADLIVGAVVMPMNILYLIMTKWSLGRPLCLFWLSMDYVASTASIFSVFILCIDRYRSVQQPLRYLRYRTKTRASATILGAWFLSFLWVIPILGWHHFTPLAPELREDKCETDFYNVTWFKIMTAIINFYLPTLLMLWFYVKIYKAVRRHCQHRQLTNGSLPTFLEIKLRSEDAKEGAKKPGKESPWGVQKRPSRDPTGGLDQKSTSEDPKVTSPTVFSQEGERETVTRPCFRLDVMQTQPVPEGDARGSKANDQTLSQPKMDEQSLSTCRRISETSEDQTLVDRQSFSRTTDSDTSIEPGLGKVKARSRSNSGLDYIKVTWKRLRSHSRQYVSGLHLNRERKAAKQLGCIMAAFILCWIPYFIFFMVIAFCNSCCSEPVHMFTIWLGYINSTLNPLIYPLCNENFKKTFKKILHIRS

In the case of `Cc1ccc(OCCCN2CCC(=Cc3ccc4ccccc4n3)CC2)c2ccc(=O)[nH]c12` [Example 11, 8-Methyl-5-[3-[4-(2-quinolylmethylene)-piperidino]propoxy]carbostyryl], the inhibition at 10 µM in series [1] turned out to be 39%. In series [2], the dissociation constant Kd stood at 20000 nM. In series [3], the Kb is 0.219 nM.

Take `O=C1CCc2cc(OCCCN3CCC(=Cc4ccc5ccccc5n4)CC3)ccc2N1` [Example 5, 6-[3-[4-(2-Quinolylmethylene)piperidino]propoxy]-1,2,3,4-tetrahydroquinolin-2-one]: the equilibrium dissociation constant (Kd) in series [2] was found to be 54400 nM; in series [4] it was 0.0469 nM.

As for `O=C1CCc2ccc(OCCCN3CCC(=Cc4ccc5ccccc5n4)CC3)cc2N1` [Example 9, 7-[3-[4-(2-Quinolylmethylene)piperidino]propoxy]-1,2,3,4-tetrahydroquinolin-2-one oxalate], the inhibition at 10 µM in series [1] was 15%. Also, the Kb in series [3] was 2.95 nM.

Regarding `Cc1ccc(OCCN2CCC(Cc3ccc4ccccc4n3)CC2)c2ccc(=O)[nH]c12` [Example 25, 8-Methyl-5-[2-[4-(2-quinolylmethyl)-piperidino]ethoxy]carbostyryl], the inhibition at 10 µM in series [1] was found to be 88%. The compound further had an IC50 in series [5] of 3400 nM. In addition, in series [3], the Kb is 0.468 nM.

Consider `Cc1ccc(OCCCN2CCC(Cc3ccc4ccccc4n3)CC2)c2c1NC(=O)C2(C)C` [Example 15, 4-[3-[4-(2-quinolylmethyl)piperidino]-propoxy]-3,3,7-trimethyl-2,3-dihydro-1H-indol-2-one], for which the inhibition at 10 µM in series [1] came to 19%. For the same compound, the dissociation constant (Kd) worked out at 8060 nM in series [2] and 3.1 nM in series [4]. Further, the Kb in series [3] is 0.324 nM.

In the case of `O=C1CCc2cccc(OCCCN3CCC(=Cc4ccc5ccccc5n4)CC3)c2N1` [Example 8, 8-[3-[4-(2-Quinolylmethylene)piperidino]propoxy]-1,2,3,4-tetrahydroquinolin-2-one oxalate], in series [1], the inhibition at 10 µM was 30%. The Kb in series [3] was 0.224 nM.

Regarding `Cc1ccc(OCCCN2CCC(=Cc3ccc4ccccc4n3)CC2)c2c1NC(=O)CC2` [Example 3, 8-Methyl-5-[3-[4-(2-quinolylmethylene)piperidino]propoxy]-1,2,3,4-tetrahydroquinolin-2-one], the inhibition at 10 µM in series [1] was determined as 77%. The compound further had a dissociation constant Kd in series [2] of 55000 nM. Also, the Kb in series [3] was 0.141 nM.

As for `O=C1CSc2cc(OCCCN3CCC(Cc4ccc5ccccc5n4)CC3)ccc2N1` [Example 16, 7-[3-[4-(2-Quinolylmethyl)piperidino]propoxy]-3,4-dihydro-2H-1,4-benzothiazin-3-one], in series [1], the inhibition at 10 µM was 15%. Further, the “Anti-histaminic action pD'2” value in series [3] is given as 8.01.

Turning to `O=C1CCc2cc(OCCN3CCC(=Cc4ccc5ccccc5n4)CC3)ccc2N1` [Example 4, 6-[2-[4-(2-Quinolylmethylene)piperidino]ethoxy]-1,2,3,4-tetrahydroquinolin-2-one], the dissociation constant (Kd) in series [2] was 12700 nM; in series [4], 164 nM.

As to `O=C1CCCc2cc(OCCCN3CCC(=Cc4ccc5ccccc5n4)CC3)ccc2N1` [Example 12, 7-[3-[4-(2-Quinolylmethylene)piperidino]propoxy]-2,3,4,5-tetrahydro-1H-benz[b]azepin-2-one oxalate], in series [1], the inhibition at 10 µM was determined as 12%. The Kd worked out at 15800 nM in series [2] and 0.0238 nM in series [4]. For the same compound, the Kb in series [3] is 0.178 nM.

As for `Cc1ccc(OCCN2CCC(=Cc3ccc4ccccc4n3)CC2)c2ccc(=O)[nH]c12` [Example 10, 8-Methyl-5-[2-[4-(2-quinolylmethylene)-piperidino]ethoxy]carbostyryl], the inhibition at 10 µM in series [1] is 61%. For the same compound, the Kd in series [2] was determined as 9860 nM; in series [4], 0.0351 nM. In series [6] (brain, BPindex = IC50 (mg/kg)/dissociation constant for H1 receptors (nM), read-out: cerebral migration index, BP index), the selectivity ratio at 1 h came out at 930. Also, in series [6] (1 h, read-out: IC50 (ex vivo)), the ED50 amounted to 33 mg/kg. Also, the Kb in series [3] is 0.0832 nM.

Consider `Cc1ccc(OCCN2CCC(Cc3ccc4ccccc4n3)CC2)c2c1NC(=O)CC2` [Example 17, 8-Methyl-5-[2-[4-(2-quinolylmethyl)piperidino]ethoxy]-1,2,3,4-tetrahydroquinolin-2-one], for which, in series [1], the inhibition at 10 µM amounted to 23%. Further, the Kb in series [3] is 0.166 nM.

As for `C(=C1CCN(CCCOc2ccc3c(c2)CCCc2nnnn2-3)CC1)c1ccc2ccccc2n1` [Example 14, 8-[3-[4-(2-Quinolylmethylene)piperidino]propoxy]-5,6-dihydro-4H-tetrazolo[1,5-a]benz[b]azepine oxalate], the inhibition at 10 µM in series [1] was 40%. The compound also returned a Kd in series [2] of 98900 nM. Moreover, the Kb in series [3] is 0.0525 nM.

For `O=C1CSc2cc(OCCCN3CCC(=Cc4ccc5ccccc5n4)CC3)ccc2N1` [Example 2, 7-[3-[4-(2-Quinolylmethylene)piperidino]propoxy]-3,4-dihydro-2H-1,4-benzothiazin-3-one], the inhibition at 10 µM in series [1] came to 21%. Besides, in series [3], the “Anti-histaminic action pD'2” value is on record as 8.22.

As for `Cc1ccc(OCCCN2CCC(Cc3ccc4ccccc4n3)CC2)c2ccc(=O)[nH]c12` [Example 26, 8-Methyl-5-[3-[4-(2-quinolylmethyl)-piperidino]propoxy]carbostyryl], in series [1], the inhibition at 10 µM is 29%. Further, the Kb in series [3] is 0.162 nM.

As to `O=C1NCCCc2cc(OCCCN3CCC(=Cc4ccc5ccccc5n4)CC3)ccc21` [Example 13, 7-[3-[4-(2-Quinolylmethylene)piperidino]propoxy]-2,3,4,5-tetrahydro-1H-benz[c]azepin-1-one oxalate], the inhibition at 10 µM in series [1] is 39%. The dissociation constant Kd in series [2] stood at 19000 nM; in series [4] it was 1.15 nM. Moreover, the Kb in series [3] was 0.174 nM.
